Measurements published in PMC5302928, “[^64Cu]XYIMSR-06: A dual-motif CAIX ligand for PET imaging of clear cell renal cell carcinoma” (Oncotarget, 2016).
Several values for one entry are separate records, joined by “and”; a condition that tells them apart may be missing. Equal entries are not always repeated.

Test system: CAIX-expressing SK-RC-52 ccRCC tumor xenografts
Assay: Biodistribution of [Al18F]XYIMSR-04 in mice bearing SK-RC-52 xenografts
Type: in vivo
Conditions: 1 h
Description: The resulting Mice bearing SK-RC-52 xenografts within the solution was heated at 110 °C for 30 min. 0.6 mg of lower left flank were injected intravenously with 740 [Al19F]XYIMSR-04 was obtained as white crystal, after kBq (20 μCi) of [Al18F]XYIMSR-04 in 200 μL of PBS.
HPLC purification. Yield is 61 %. HPLC condition: At specific 1 hour time point mentioned in the paper, column Phenomenex, Luna 10 x 250 mm, 10 µ. 20/80/ mice (n = 5) were sacrificed by cervical dislocation and TFA MeCN/H O/TFA, flow 4 mL/min. Product was the blood was immediately collected by cardiac puncture. […]
eluded at 35.5 min. MS, calculated for C H AlFN N Heart, lungs, pancreas, spleen, fat, brain, muscle, small […]
aO S [M+Na] : 1426.4759; Found: 1426.4777. intestines, liver, bone, stomach, kidney, urinary bladder, […]
and tumor were collected. Each organ was weighed and Radiosynthesis the tissue radioactivity was measured with an automated gamma counter (1282 Compugamma CS, Pharmacia/
For convenience, Na18F in saline purchased from LKBNuclear, Inc., Mt. Waverly, Vic. Australia). The PETNET (Hackensack, NJ) was directly applied with to percentage of injected dose per gram of tissue (% ID/g) the synthesis with a slightly modified protocol (2). Due to was calculated by comparison with samples of a standard […]
reaction condition. corrected for radioactive decay.
Radiosynthesis of [Al18F]XYIMSR-04. 400μg of Data were expressed as mean ± standard deviation XYIMSR-04 in 200 μL water/Ethanol 1:1 was added to (SD). Prism software (GraphPAD, San Diego, California) 1 mL of Na18F in 0.9% saline containing 4.6-14.0 mCi was used to determine statistical significance. Statistical activity. To this mixture, 20 μL of 2 mM AlCl3/NaOAc significance was calculated using a paired t test. P-values solution and 200 μL of ethanol were added. The reaction < 0.0001 were considered significant. was kept at 105 °C for 20 min, then diluted to 2.0 mL The biodistribution data at 1 h is shown below. with water and loaded onto a preparative HPLC column The tumor uptake is 14.40%ID/g, with tumor-to –blood, for purification. Retention times for the radiolabeled -muscle and –kidney of 22.1, 9.74 and 0.28. compound, [Al18F]XYIMSR-04, and starting material, XYIMSR-04, were optimized to the point of baseline Imaging separation, with [Al18F]XYIMSR-04 eluting first.
[Al18F]XYIMSR-04 was obtained a radiochemical yield Mice harboring subcutaneous SK-RC-52 tumors of 4.3% (n=3) in specific radioactivity of 57-92 Ci/mmol with the lower left flank were injected with 7.4 MBq (200 in 1 hour. HPLC conditions: Phenomenex, Luna 10 x 250 μCi) of [Al18F]XYIMSR-04 in 250 µL of PBS (pH = 7.0) mm, 10μ. 20/80/0.1 MeCN/H2O/TFA, flow 4 mL/min. intravenously (tail vein). Anesthesia was then induced Product eluted at 35.5 min, while starting material eluted with 3% isofluorane and maintained at 2% isoflurane. […]
(also on this page, place not known: www.impactjournals.com/oncotarget/ Oncotarget, Supplementary Materials 2016 ([Al19F]XYIMSR-04). AlCl 3 2O/TFA, 57H79AlFN15N aO20S2 +: Na 18F [Al 18F]XYIMSR-04. XYIMSR-04 Na 18F AlCl 3/NaOAc [Al 18F]XYIMSR-04, [Al 18F]XYIMSR-04 MeCN/H 2O/TFA, [Al 19F]XYIMSR-04 [Al 18F]XYIMSR-04) […]

Compound: CC(CCC(=O)N[C@@H](CC(=O)N[C@@H](CC(=O)N[C@@H](CCCCn1cc(CCCC(=O)Nc2nnc(S(N)(=O)=O)s2)nn1)C(=O)NCCOCCOCCNC(=O)CN1CCN2CCN(CC1)CC(=O)[O][Al]([18F])[O]C(=O)C2)C(=O)O)C(=O)O)(c1ccc(O)cc1)c1ccc(O)cc1 [[Al^18F]XYIMSR-04]
- Bladder uptake: 20.12 ± 12.51 %ID/g
- Blood uptake: 0.65 ± 0.11 %ID/g
- Bone uptake: 1.91 ± 1.39 %ID/g
- Brain uptake: 0.66 ± 0.04 %ID/g
- Fat uptake: 1.54 ± 0.25 %ID/g
- Heart uptake: 5.03 ± 0.51 %ID/g
- Kidney (kid) uptake: 50.84 ± 2.65 %ID/g
- Liver uptake: 5.55 ± 0.91 %ID/g
- Lung uptake: 34.07 ± 5.85 %ID/g
- Muscle (mm) uptake: 1.74 ± 0.58 %ID/g
- Pancreas uptake: 3.47 ± 0.16 %ID/g
- Sm. intestine uptake: 9.59 ± 1.04 %ID/g
- Spleen uptake: 0.54 ± 0.18 %ID/g
- Stomach uptake: 21.62 ± 1.85 %ID/g
- Tumor uptake: 14.4 ± 2.2 %ID/g
- Tumor/kid (kidney) ratio: 0.28 ± 0.03
- Tumor/mm (muscle) ratio: 9.7 ± 2.9
- Tumor/Blood ratio (listed as [Al18F]XYIMSR-04): 22.1 and 22.1 ± 1.5
- Tumor/kid (kidney) ratio (listed as [Al18F]XYIMSR-04): 0.28
- Tumor/mm (muscle) ratio (listed as [Al18F]XYIMSR-04): 9.74
